These results are taken from PMC7552967, “Anti-Melanoma Activities of Artemisone and Prenylated Amino-Artemisinins in Combination With Known Anticancer Drugs” (Frontiers in Pharmacology, 2020).

What all share (type): cell-based
The test system of test [1] is MCF-7 breast cancer cells. The test can be described thus: Sulforhodamine B (SRB) growth inhibition assay, MCF7. The settings on record: Homo sapiens, mean ± SD. The text has this:
(§1) The human cell lines TK10 (human kidney adenocarcinoma), UACC62 (human melanoma) and MCF7 (human breast adenocarcinoma) were obtained from the National Cancer Institute (NCI) as part of a panel widely studied for drug screening and molecular target identification. Melanoma (A375) and human embryonic kidney (HEK293) were acquired from the American Type Culture Collection; ATCC® CRL-1619™ and ATCC® CRL-1573™ respectively. The nontumorigenic human immortalized keratinocyte (HaCaT) cells were a kind donation by the School of Anatomical Sciences, Faculty of Health Sciences, University of the Witwatersrand, South Africa. […]
(§2) The growth inhibitory effects of the compounds were tested in the 3-cell line panel consisting of TK10 (renal), UACC62 (melanoma) and MCF7 (breast) cancer cells by Sulforhodamine B (SRB) assay. In addition, activity was also evaluated against HEK293 cells with the 3-(4,5-dimethylthiazol-2-yl)-2,5-diphenyl tetrazolium bromide (MTT) assay ([Mosmann, 1983]). […] The results were expressed as half maximal inhibitory concentrations (IC50) as described before ([Lewies et al., 2018]). […] After incubation, cell viability was determined using a microplate reader (BioTek®, Vermont, USA) at an excitation wavelength of 560 nm and emission wavelength of 630 nm with DMSO measured as a blank. […] Using the MTT assay data, IC50 values were calculated using GraphPad Prism 8. […]

Another test deals with UACC62 melanoma cells. The test can be described thus: Sulforhodamine B (SRB) growth inhibition assay, UACC62. Particulars: Homo sapiens, UACC-62, mean ± SD.
Excerpt: as §1, §2

In another test the test system is TK10 renal cancer cells. The test can be described thus: Sulforhodamine B (SRB) growth inhibition assay, TK10. Particulars: Homo sapiens, TK-10, mean ± SD.
Excerpt: as §1, §2

`C[C@H]1[C@H](N2CCS(=O)(=O)CC2)O[C@@H]2O[C@@]3(C)CC[C@H]4[C@H](C)CC[C@@H]1[C@@]24OO3` [Artemisone 4, artemisone]: the IC50 (usually the concentration that gives 50% inhibition) is 2.75 ± 0.79 µM in test [1], 32.7 ± 3.47 µM in the test with UACC62 melanoma cells and over 100 µM in the test with TK10 renal cancer cells.
`CC(C)=CCC/C(C)=C/CC/C(C)=C/CN1CCN([C@@H]2O[C@@H]3O[C@@]4(C)CC[C@H]5[C@H](C)CC[C@@H]([C@H]2C)[C@@]35OO4)CC1` [Farnesylpiperazine-DHA 7, farnesylpiperazine-DHA]: the figures for the IC50 (in test [1]; in the test with UACC62 melanoma cells; with TK10 renal cancer cells) were 1.56 ± 0.51 µM, 2.15 ± 0.79 µM and 3 ± 0.67 µM, respectively.
